Laboratory results reported in ChEMBL document CHEMBL4229370, “Discovery of novel quinazolinone derivatives as high potent and selective PI3Kδ and PI3Kδ/γ inhibitors” (Eur J Med Chem, 2018).

Assays:
[1] = target: T1, Phosphatidylinositol 4,5-bisphosphate 3-kinase catalytic subunit delta isoform (Homo sapiens, UniProt O00329); assay: Inhibition of PI3Kdelta (unknown origin) using Biotin-S11S12 as substrate after 120 mins in presence of ATP by ADPGlo luminescence assay
T1 sequence (O00329 whole entry): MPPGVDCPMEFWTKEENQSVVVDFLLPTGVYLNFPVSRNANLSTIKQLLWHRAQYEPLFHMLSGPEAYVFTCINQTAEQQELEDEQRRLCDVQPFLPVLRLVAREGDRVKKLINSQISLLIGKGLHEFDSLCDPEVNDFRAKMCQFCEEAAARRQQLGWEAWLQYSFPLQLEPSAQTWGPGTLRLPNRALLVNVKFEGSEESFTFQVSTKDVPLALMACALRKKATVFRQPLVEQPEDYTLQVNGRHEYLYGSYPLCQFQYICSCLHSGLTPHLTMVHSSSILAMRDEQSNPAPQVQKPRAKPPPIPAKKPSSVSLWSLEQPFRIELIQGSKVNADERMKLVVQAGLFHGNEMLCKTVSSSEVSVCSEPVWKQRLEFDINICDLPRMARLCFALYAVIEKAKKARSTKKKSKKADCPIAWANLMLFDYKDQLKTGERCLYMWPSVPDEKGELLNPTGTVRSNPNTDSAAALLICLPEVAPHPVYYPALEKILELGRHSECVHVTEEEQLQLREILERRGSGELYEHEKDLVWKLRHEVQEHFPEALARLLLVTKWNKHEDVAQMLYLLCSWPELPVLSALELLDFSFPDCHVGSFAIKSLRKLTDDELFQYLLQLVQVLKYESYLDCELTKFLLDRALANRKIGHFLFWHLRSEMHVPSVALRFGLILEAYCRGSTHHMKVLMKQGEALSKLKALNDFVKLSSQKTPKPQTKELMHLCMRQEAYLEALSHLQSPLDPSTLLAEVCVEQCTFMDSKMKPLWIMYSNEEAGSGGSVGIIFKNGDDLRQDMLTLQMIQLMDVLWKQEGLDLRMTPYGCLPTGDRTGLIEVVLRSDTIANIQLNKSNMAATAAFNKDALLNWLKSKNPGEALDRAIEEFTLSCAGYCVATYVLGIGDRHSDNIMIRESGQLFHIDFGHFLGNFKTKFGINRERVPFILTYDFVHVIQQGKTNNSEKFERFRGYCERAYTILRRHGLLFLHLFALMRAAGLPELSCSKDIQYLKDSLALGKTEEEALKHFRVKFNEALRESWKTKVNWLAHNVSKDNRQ

[2] = target: T2, Phosphatidylinositol 4,5-bisphosphate 3-kinase catalytic subunit delta isoform (Homo sapiens) (UniProt O00329); assay: Inhibition of PI3Kdelta (unknown origin) at 1 uM using Biotin-S11S12 as substrate after 120 mins in presence of ATP by ADPGlo luminescence assay
T2 sequence (whole entry): T1 sequence (O00329 whole entry)

SU-DHL-6 = assay: Growth inhibition of human SU-DHL6 cells by CellTiter-Glo assay; assay type: functional
[3] = AUClast in Sprague-Dawley rat at 10 mg/kg, po; assay type: ADME, organism-based; parameters: dose 10 mg/kg, time 0 - last, route oral; settings: in vivo
[4] = Clearance in Sprague-Dawley rat at 1 mg/kg, iv; assay type: ADME, organism-based; settings: in vivo
[5] = target: Phosphatidylinositol 4,5-bisphosphate 3-kinase catalytic subunit alpha isoform (Homo sapiens, UniProt P42336); assay: Inhibition of PI3Kalpha (unknown origin) using Biotin-S11S12 as substrate after 60 mins in presence of ATP by Kinase Glo luminescence assay
Sequence of Phosphatidylinositol 4,5-bisphosphate 3-kinase catalytic subunit alpha isoform (P42336 whole entry, canonical isoform): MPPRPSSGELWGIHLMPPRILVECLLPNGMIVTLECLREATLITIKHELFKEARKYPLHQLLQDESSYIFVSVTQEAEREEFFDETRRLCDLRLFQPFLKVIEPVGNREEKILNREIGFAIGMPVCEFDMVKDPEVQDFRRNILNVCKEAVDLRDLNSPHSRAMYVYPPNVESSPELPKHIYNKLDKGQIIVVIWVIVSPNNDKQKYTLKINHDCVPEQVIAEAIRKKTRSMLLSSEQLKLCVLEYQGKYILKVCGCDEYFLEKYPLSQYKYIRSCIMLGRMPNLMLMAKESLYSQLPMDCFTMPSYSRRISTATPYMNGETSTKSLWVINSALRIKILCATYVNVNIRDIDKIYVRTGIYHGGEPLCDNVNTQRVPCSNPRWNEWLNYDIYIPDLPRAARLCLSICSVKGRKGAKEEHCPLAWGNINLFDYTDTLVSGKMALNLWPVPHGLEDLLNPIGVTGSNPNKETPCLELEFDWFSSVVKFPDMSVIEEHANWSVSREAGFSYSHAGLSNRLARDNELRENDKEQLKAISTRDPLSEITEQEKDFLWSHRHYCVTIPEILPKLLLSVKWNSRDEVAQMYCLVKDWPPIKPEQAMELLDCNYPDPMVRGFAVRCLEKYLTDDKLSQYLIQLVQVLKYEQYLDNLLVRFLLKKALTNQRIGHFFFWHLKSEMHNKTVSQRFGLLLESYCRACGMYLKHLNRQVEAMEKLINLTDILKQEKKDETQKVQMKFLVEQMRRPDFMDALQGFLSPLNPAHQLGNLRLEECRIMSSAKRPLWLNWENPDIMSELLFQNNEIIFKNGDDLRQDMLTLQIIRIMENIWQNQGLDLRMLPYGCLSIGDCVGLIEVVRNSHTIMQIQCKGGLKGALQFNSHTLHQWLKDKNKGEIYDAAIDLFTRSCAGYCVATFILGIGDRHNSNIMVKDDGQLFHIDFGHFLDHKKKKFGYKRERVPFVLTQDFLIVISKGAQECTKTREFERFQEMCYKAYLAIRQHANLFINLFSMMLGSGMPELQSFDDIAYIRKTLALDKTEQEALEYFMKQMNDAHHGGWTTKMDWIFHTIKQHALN

[6] = target: Phosphatidylinositol 4,5-bisphosphate 3-kinase catalytic subunit beta isoform (Homo sapiens, UniProt P42338); assay: Inhibition of PI3Kbeta (unknown origin) using Biotin-S11S12 as substrate after 60 mins in presence of ATP by ADPGlo luminescence assay
Sequence of Phosphatidylinositol 4,5-bisphosphate 3-kinase catalytic subunit beta isoform (P42338 whole entry, canonical isoform): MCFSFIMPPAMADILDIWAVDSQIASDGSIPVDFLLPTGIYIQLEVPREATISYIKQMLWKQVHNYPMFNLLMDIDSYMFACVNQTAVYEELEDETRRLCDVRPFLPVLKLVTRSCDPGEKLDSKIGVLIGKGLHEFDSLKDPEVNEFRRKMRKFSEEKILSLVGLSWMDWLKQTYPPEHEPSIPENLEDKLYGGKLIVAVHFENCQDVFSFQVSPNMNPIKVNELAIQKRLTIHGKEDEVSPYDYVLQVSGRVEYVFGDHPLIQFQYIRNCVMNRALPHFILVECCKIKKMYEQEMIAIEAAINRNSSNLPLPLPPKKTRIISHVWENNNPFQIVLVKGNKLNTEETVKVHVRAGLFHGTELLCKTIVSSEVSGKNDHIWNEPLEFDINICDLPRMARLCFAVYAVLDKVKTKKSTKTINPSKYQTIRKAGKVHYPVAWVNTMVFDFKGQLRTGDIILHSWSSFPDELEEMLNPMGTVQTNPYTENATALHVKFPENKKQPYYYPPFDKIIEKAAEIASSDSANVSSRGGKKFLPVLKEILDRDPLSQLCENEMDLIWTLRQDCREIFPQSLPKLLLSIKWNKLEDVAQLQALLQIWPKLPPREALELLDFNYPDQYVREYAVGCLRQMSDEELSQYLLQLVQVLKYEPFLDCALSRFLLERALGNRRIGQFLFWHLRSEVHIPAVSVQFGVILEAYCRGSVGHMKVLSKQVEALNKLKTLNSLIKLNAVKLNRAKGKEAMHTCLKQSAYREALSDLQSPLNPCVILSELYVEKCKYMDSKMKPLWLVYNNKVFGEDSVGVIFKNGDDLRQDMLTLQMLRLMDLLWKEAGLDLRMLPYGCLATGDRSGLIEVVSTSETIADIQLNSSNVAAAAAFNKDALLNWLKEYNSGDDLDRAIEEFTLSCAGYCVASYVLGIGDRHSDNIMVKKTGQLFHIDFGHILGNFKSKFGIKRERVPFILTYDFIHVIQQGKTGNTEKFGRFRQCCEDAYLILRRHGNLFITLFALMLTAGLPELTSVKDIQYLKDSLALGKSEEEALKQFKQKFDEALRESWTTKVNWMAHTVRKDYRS

[7] = target: Phosphatidylinositol 4,5-bisphosphate 3-kinase catalytic subunit gamma isoform (Homo sapiens, UniProt P48736); assay: Inhibition of PI3Kgamma (unknown origin) using Biotin-S11S12 as substrate after 60 mins in presence of ATP by ADPGlo luminescence assay
Sequence of Phosphatidylinositol 4,5-bisphosphate 3-kinase catalytic subunit gamma isoform (P48736 whole entry, canonical isoform): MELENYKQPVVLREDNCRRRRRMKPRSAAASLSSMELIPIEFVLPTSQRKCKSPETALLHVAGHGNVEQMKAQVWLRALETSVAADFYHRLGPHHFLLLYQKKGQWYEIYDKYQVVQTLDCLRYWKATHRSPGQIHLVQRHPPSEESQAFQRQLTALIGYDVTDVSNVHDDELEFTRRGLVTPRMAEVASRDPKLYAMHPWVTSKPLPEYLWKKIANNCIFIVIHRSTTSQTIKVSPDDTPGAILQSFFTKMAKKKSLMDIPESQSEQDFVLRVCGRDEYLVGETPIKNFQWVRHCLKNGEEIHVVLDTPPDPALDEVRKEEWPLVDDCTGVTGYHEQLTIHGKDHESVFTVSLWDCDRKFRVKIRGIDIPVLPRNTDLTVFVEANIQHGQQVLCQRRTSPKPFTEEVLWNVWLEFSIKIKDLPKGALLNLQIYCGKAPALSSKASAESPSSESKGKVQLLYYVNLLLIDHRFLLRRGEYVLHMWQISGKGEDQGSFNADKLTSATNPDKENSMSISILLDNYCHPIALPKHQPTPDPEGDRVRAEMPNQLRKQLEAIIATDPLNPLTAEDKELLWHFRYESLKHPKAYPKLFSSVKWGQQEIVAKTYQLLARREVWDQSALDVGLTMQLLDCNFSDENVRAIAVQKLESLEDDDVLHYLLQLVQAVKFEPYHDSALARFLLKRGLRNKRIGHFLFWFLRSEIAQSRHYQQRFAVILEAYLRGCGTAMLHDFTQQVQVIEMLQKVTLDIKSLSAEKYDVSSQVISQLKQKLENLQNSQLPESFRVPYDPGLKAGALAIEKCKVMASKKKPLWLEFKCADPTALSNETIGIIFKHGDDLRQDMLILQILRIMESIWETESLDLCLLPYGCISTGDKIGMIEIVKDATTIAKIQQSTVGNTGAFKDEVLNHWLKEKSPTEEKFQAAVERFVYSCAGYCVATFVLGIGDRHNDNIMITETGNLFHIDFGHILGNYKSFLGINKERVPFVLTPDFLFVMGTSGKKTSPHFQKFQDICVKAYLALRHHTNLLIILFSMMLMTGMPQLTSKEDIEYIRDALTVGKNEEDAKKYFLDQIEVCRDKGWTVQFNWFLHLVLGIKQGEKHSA

Homo sapiens [8] = species on record: Homo sapiens; assay: Selectivity index, ratio of IC50 for PI3Kalpha (unknown origin) to IC50 for PI3Kdelta (unknown origin)
Homo sapiens [9] = species on record: Homo sapiens; assay: Selectivity index, ratio of IC50 for PI3Kbeta (unknown origin) to IC50 for PI3Kdelta (unknown origin)
Homo sapiens [10] = species on record: Homo sapiens; assay: Selectivity index, ratio of IC50 for PI3Kgamma (unknown origin) to IC50 for PI3Kdelta (unknown origin)
[11] = AUClast in Sprague-Dawley rat at 1 mg/kg, iv; assay type: ADME, organism-based; parameters: dose 1 mg/kg, time 0 - last, route intravenous; settings: in vivo
[12] = AUC (0 to infinity) in Sprague-Dawley rat at 1 mg/kg, iv; assay type: ADME, organism-based; parameters: dose 1 mg/kg, time infinity, route intravenous; settings: in vivo
[13] = Volume of distribution at steady state in Sprague-Dawley rat at 1 mg/kg, iv; assay type: ADME, organism-based; settings: in vivo, read-out: Vdss
[14] = Terminal half-life in Sprague-Dawley rat at 1 mg/kg, iv; assay type: ADME, organism-based; settings: in vivo, read-out: beta t1/2 (converted)
[15] = AUC (0 to infinity) in Sprague-Dawley rat at 10 mg/kg, po; assay type: ADME, organism-based; parameters: dose 10 mg/kg, time infinity, route oral; settings: in vivo
[16] = Terminal half-life in Sprague-Dawley rat at 10 mg/kg, po; assay type: ADME, organism-based; settings: in vivo, read-out: beta t1/2 (converted)
[17] = Oral bioavailability in Sprague-Dawley rat at 10 mg/kg; assay type: ADME, organism-based; settings: in vivo
[18] = MRT (infinity) in Sprague-Dawley rat at 1 mg/kg, iv; assay type: ADME, organism-based; settings: in vivo
[19] = Tmax in Sprague-Dawley rat at 10 mg/kg, po; assay type: ADME, organism-based; settings: in vivo
[20] = Cmax in Sprague-Dawley rat at 10 mg/kg, po; assay type: ADME, organism-based; parameters: dose 10 mg/kg, route oral; settings: in vivo
[21] = Plasma concentration in Sprague-Dawley rat at 1 mg/kg, iv after 0.083 hrs; assay type: ADME, organism-based
[22] = Plasma concentration in Sprague-Dawley rat at 1 mg/kg, iv after 0.25 hrs; assay type: ADME, organism-based
[23] = Plasma concentration in Sprague-Dawley rat at 1 mg/kg, iv after 0.5 hrs; assay type: ADME, organism-based
[24] = Plasma concentration in Sprague-Dawley rat at 1 mg/kg, iv after 1 hrs; assay type: ADME, organism-based
[25] = Plasma concentration in Sprague-Dawley rat at 1 mg/kg, iv after 2 hrs; assay type: ADME, organism-based
[26] = Plasma concentration in Sprague-Dawley rat at 1 mg/kg, iv after 4 hrs; assay type: ADME, organism-based
[27] = Plasma concentration in Sprague-Dawley rat at 1 mg/kg, iv after 8 hrs; assay type: ADME, organism-based
[28] = Plasma concentration in Sprague-Dawley rat at 1 mg/kg, iv after 24 hrs; assay type: ADME, organism-based; settings: in vivo, BLD = below limit of detection
[29] = Plasma concentration in Sprague-Dawley rat at 10 mg/kg, po after 0.083 hrs; assay type: ADME, organism-based
[30] = Plasma concentration in Sprague-Dawley rat at 10 mg/kg, po after 0.25 hrs; assay type: ADME, organism-based
[31] = Plasma concentration in Sprague-Dawley rat at 10 mg/kg, po after 0.5 hrs; assay type: ADME, organism-based
[32] = Plasma concentration in Sprague-Dawley rat at 10 mg/kg, po after 1 hrs; assay type: ADME, organism-based
[33] = Plasma concentration in Sprague-Dawley rat at 10 mg/kg, po after 2 hrs; assay type: ADME, organism-based
[34] = Plasma concentration in Sprague-Dawley rat at 10 mg/kg, po after 4 hrs; assay type: ADME, organism-based
[35] = Plasma concentration in Sprague-Dawley rat at 10 mg/kg, po after 8 hrs; assay type: ADME, organism-based
[36] = Plasma concentration in Sprague-Dawley rat at 10 mg/kg, po after 24 hrs; assay type: ADME, organism-based; settings: in vivo, BLD = below limit of detection

COc1ccc(-c2nn(Cc3nc4cccc(F)c4c(=O)n3-c3ccccc3C)c3ncnc(N)c23)cn1
IC50 [1]: 31 nM | inhibition [2]: 92.7%

CC[C@H](Nc1ncnc2[nH]cnc12)c1nc2cccc(F)c2c(=O)n1-c1ccccc1 [IDELALISIB]
inhibition [2]: 91.9% | GI50 (SU-DHL-6): 42 nM

Cc1cccc(C)c1-n1c(Cn2nc(-c3cccc(OC(F)(F)F)c3)c3c(N)ncnc32)nc2cccc(F)c2c1=O
inhibition [2]: 29.6%

COc1ccc(-c2nn(Cc3nc4cccc(F)c4c(=O)n3-c3c(C)cccc3C)c3ncnc(N)c23)cn1
IC50 [1]: 41 nM | inhibition [2]: 94.7%

Cc1cccc(C)c1-n1c(Cn2nc(-c3ccc4cc(O)ccc4c3)c3c(N)ncnc32)nc2cccc(F)c2c1=O
IC50 [1]: 416 nM | inhibition [2]: 77.3%

COc1ccc(-c2nn(Cc3nc4cccc(F)c4c(=O)n3-c3c(C)cccc3C)c3ncnc(N)c23)cc1OC
AUC(0-t) [3]: 3530 ng·h/mL | clearance [4]: 16.5 mL/min/kg | IC50 [1]: 8.4 nM | inhibition [2]: 96.8% | IC50 [5]: 11800 nM | IC50 [6]: 6960 nM | IC50 [7]: 62 nM | Ratio IC50 (Homo sapiens [8]): 1410 | Ratio IC50 (Homo sapiens [9]): 828 | Ratio IC50 (Homo sapiens [10]): 7 | GI50 (SU-DHL-6): 222 nM | AUC(0-t) [11]: 1010 ng·h/mL | AUC(0-inf) [12]: 1020 ng·h/mL | Vd [13]: 0.45 L/kg | half-life [14]: 37.2 min | AUC(0-inf) [15]: 3550 ng·h/mL | half-life [16]: 101 min | bioavailability [17]: 34.9% | MRT inf [18]: 30.6 min | Tmax [19]: 50 min | Cmax [20]: 387 ng/mL | concentration at 0.083 h [21]: 1020 ng/mL | concentration at 0.25 h [22]: 541 ng/mL | concentration at 0.5 h [23]: 250 ng/mL | concentration at 1 h [24]: 64.3 ng/mL | concentration at 2 h [25]: 13.1 ng/mL | concentration at 4 h [26]: 2.58 ng/mL | concentration at 8 h [27]: 1.83 ng/mL | Cp [28]: Bld | concentration at 0.083 h [29]: 198 ng/mL | concentration at 0.25 h [30]: 343 ng/mL | concentration at 0.5 h [31]: 379 ng/mL | concentration at 1 h [32]: 318 ng/mL | concentration at 2 h [33]: 192 ng/mL | concentration at 4 h [34]: 9.86 ng/mL | concentration at 8 h [35]: 6.5 ng/mL | Cp [36]: Bld

Cc1ccccc1-n1c(Cn2nc(-c3ccc4cc(O)ccc4c3)c3c(N)ncnc32)nc2cccc(F)c2c1=O
IC50 [1]: 227 nM | inhibition [2]: 73%

COc1ccc(-c2nn(Cc3nc4cccc(F)c4c(=O)n3-c3ccccc3C)c3ncnc(N)c23)cc1OC
IC50 [1]: 26 nM | inhibition [2]: 90.8%

Cc1ccccc1-n1c(Cn2nc(-c3ccc4[nH]ccc4c3)c3c(N)ncnc32)nc2cccc(F)c2c1=O
IC50 [1]: 16 nM | inhibition [2]: 94.7%

Cc1ccccc1-n1c(Cn2nc(-c3ccc4c(c3)OCO4)c3c(N)ncnc32)nc2cccc(F)c2c1=O
IC50 [1]: 106 nM | inhibition [2]: 89.6%

Cc1ccccc1-n1c(Cn2nc(-c3cnc4ccccc4c3)c3c(N)ncnc32)nc2cccc(F)c2c1=O
IC50 [1]: 86 nM | inhibition [2]: 90%

Cc1cccc(C)c1-n1c(Cn2nc(-c3cnc4ccccc4c3)c3c(N)ncnc32)nc2cccc(F)c2c1=O
IC50 [1]: 81 nM | inhibition [2]: 92%

Cc1cccc(C)c1-n1c(Cn2nc(-c3ccc4c(c3)OCO4)c3c(N)ncnc32)nc2cccc(F)c2c1=O
IC50 [1]: 84 nM | inhibition [2]: 89.1%

Cc1ccccc1-n1c(Cn2nc(-c3cccc(OC(F)(F)F)c3)c3c(N)ncnc32)nc2cccc(F)c2c1=O
inhibition [2]: 70.8%

Cc1cccc(C)c1-n1c(Cn2nc(-c3ccc4[nH]ccc4c3)c3c(N)ncnc32)nc2cccc(F)c2c1=O
AUC(0-t) [3]: 808 ng·h/mL | clearance [4]: 36 mL/min/kg | IC50 [1]: 8.6 nM | inhibition [2]: 96.8% | IC50 [5]: 31300 nM | IC50 [6]: 3370 nM | IC50 [7]: 363 nM | Ratio IC50 (Homo sapiens [8]): 3640 | Ratio IC50 (Homo sapiens [9]): 392 | Ratio IC50 (Homo sapiens [10]): 42 | GI50 (SU-DHL-6): 149 nM | AUC(0-t) [11]: 471 ng·h/mL | AUC(0-inf) [12]: 473 ng·h/mL | Vd [13]: 1.11 L/kg | half-life [14]: 50.4 min | AUC(0-inf) [15]: 820 ng·h/mL | half-life [16]: 78.6 min | bioavailability [17]: 17.3% | MRT inf [18]: 30.6 min | Tmax [19]: 50 min | Cmax [20]: 387 ng/mL | concentration at 0.083 h [21]: 1020 ng/mL | concentration at 0.25 h [22]: 541 ng/mL | concentration at 0.5 h [23]: 250 ng/mL | concentration at 1 h [24]: 64.3 ng/mL | concentration at 2 h [25]: 13.1 ng/mL | concentration at 4 h [26]: 2.58 ng/mL | concentration at 8 h [27]: 1.83 ng/mL | Cp [28]: Bld | concentration at 0.083 h [29]: 198 ng/mL | concentration at 0.25 h [30]: 343 ng/mL | concentration at 0.5 h [31]: 379 ng/mL | concentration at 1 h [32]: 318 ng/mL | concentration at 2 h [33]: 192 ng/mL | concentration at 4 h [34]: 9.86 ng/mL | concentration at 8 h [35]: 6.5 ng/mL | Cp [36]: Bld
